How the values were obtained:
Assay in all cases: relative viability (nuclei count vs DMSO), 5 days (fraction); higher = more cells survive
AZ628 + Alpelisib = compound: CC1=C(C=C(C=C1)NC(=O)C2=CC(=CC=C2)C(C)(C)C#N)NC3=CC4=C(C=C3)N=CN(C4=O)C [AZ628] + Cc1nc(NC(=O)N2CCC[C@H]2C(N)=O)sc1-c1ccnc(C(C)(C)C(F)(F)F)c1 [Alpelisib] (partner 2 µM)
In short: (§1)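 Each reported value is a median over duplicate plates. It expresses relative viability: treated-well nuclei count divided by vehicle-well nuclei count. Lung cancer cell lines in 1536-well plates were dosed by pin tool a day after seeding, alone with one drug or with a fixed anchor-drug dose plus five library-drug doses (not always all listed) in √10 steps, and nuclei were counted after 5 days.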

QS11 + Linsitinib = compound: C1CC2=C(C1)C=C(C=C2)OC3=NC(=C4C(=N3)N(C=N4)CC5=CC=C(C=C5)C6=CC=CC=C6)N[C@@H](CC7=CC=CC=C7)CO [QS11] + C[C@]1(O)C[C@@H](c2nc(-c3ccc4ccc(-c5ccccc5)nc4c3)c3c(N)nccn32)C1 [Linsitinib] (partner 1 µM)
In short: as §1

QS11 + Olaparib = compound: C1CC2=C(C1)C=C(C=C2)OC3=NC(=C4C(=N3)N(C=N4)CC5=CC=C(C=C5)C6=CC=CC=C6)N[C@@H](CC7=CC=CC=C7)CO [QS11] + O=C(c1cc(Cc2n[nH]c(=O)c3ccccc23)ccc1F)N1CCN(C(=O)C2CC2)CC1 [Olaparib] (partner 8 µM)
In short: as §1

AZ628 + Dasatinib = compound: CC1=C(C=C(C=C1)NC(=O)C2=CC(=CC=C2)C(C)(C)C#N)NC3=CC4=C(C=C3)N=CN(C4=O)C [AZ628] + Cc1nc(Nc2ncc(C(=O)Nc3c(C)cccc3Cl)s2)cc(N2CCN(CCO)CC2)n1 [Dasatinib] (partner 0.075 µM)
In short: as §1

| Cell Line | relative viability (AZ628 + Alpelisib; first compound 0.08 µM) | relative viability (AZ628 + Alpelisib; first compound 0.253 µM) | relative viability (AZ628 + Alpelisib; first compound 0.8 µM) | relative viability (AZ628 + Alpelisib; first compound 2.53 µM) | relative viability (AZ628 + Alpelisib; first compound 8 µM) | relative viability (QS11 + Linsitinib; first compound 0.08 µM) | relative viability (QS11 + Linsitinib; first compound 0.253 µM) | relative viability (QS11 + Linsitinib; first compound 0.8 µM) | relative viability (QS11 + Linsitinib; first compound 2.53 µM) | relative viability (QS11 + Linsitinib; first compound 8 µM) | relative viability (QS11 + Olaparib; first compound 0.08 µM) | relative viability (QS11 + Olaparib; first compound 0.253 µM) | relative viability (QS11 + Olaparib; first compound 0.8 µM) | relative viability (QS11 + Olaparib; first compound 2.53 µM) | relative viability (QS11 + Olaparib; first compound 8 µM) | relative viability (AZ628 + Dasatinib; first compound 0.08 µM) | relative viability (AZ628 + Dasatinib; first compound 0.253 µM) | relative viability (AZ628 + Dasatinib; first compound 0.8 µM) | relative viability (AZ628 + Dasatinib; first compound 2.53 µM) | relative viability (AZ628 + Dasatinib; first compound 8 µM) |
| --- | --- | --- | --- | --- | --- | --- | --- | --- | --- | --- | --- | --- | --- | --- | --- | --- | --- | --- | --- | --- |
| LK-2 | 1.23 | 1.27 | 0.834 | 1.08 | 0.296 | 0.341 | 0.619 | 0.668 | 0.31 | 0.81 | 0.569 | 0.764 | 1.03 | 0.734 | 0.856 | 0.311 | 0.288 | 0.204 | 0.23 | 0.212 |
| NCI-H520 | 0.908 | 0.826 | 0.733 | 0.819 | 0.52 |  | 0.986 | 1.09 | 1.18 | 1.11 | 0.347 | 0.304 | 0.394 | 0.313 | 0.301 | 0.254 | 0.189 | 0.325 | 0.18 | 0.215 |
| H3255 | 0.724 | 0.653 | 0.75 | 0.747 | 0.496 | 0.954 | 0.97 |  | 0.973 | 1.03 | 0.548 | 0.588 | 0.456 | 0.567 | 0.534 | 0.311 | 0.362 | 0.319 | 0.351 | 0.252 |
| PC-14 | 1 | 0.854 | 0.923 | 1.01 | 0.751 | 1.04 | 1.08 | 0.758 | 0.906 | 0.901 | 0.253 | 0.339 | 0.249 | 0.272 | 0.38 | 0.274 | 0.289 | 0.315 | 0.262 | 0.146 |
| HCC-78 | 0.5 | 0.336 | 0.346 | 0.368 | 0.504 | 0.517 | 0.528 | 0.463 | 0.579 | 0.514 | 0.665 | 1.02 | 0.83 | 0.859 | 0.806 | 0.514 | 0.338 | 0.417 | 0.394 | 0.367 |
| CAL-12T | 1.29 |  | 1.2 | 1.34 | 0.503 | 1.01 | 0.693 | 0.695 | 0.688 | 0.7 | 0.722 | 0.693 | 0.67 | 0.727 | 0.603 | 0.385 | 0.336 | 0.255 | 0.271 | 0.278 |
| NCI-H3122 | 0.631 | 0.337 | 0.342 | 0.268 | 0.233 | 1 | 1.17 | 0.919 | 1.17 | 0.842 | 0.636 | 0.694 |  | 0.601 | 0.637 | 0.819 | 0.39 | 0.15 | 0.212 | 0.176 |
| NCI-H596 | 0.504 | 0.553 | 0.567 | 0.498 | 0.422 | 1.04 | 1.02 | 1.01 | 1.1 | 1.16 | 0.724 | 0.563 | 0.634 | 0.606 | 0.61 | 0.693 | 0.618 | 0.573 | 0.565 | 0.471 |
